# Measurements published in patent US4956381A, “Treating tissue calcium depletion or degenerative processes in bone or cartilage” (Sandoz Ltd., priority 1987, dated 1990).
# Legend:
# pulmonary fibrosis = assay: Pulmonary fibrosis (bleomycin induced); type: in vivo, New Zealand white rabbits; conditions: ca. 2.5 to 60 mg/kg/day p.o.; substantially pure Z-isomeric form; vs placebo
# Protocol: Testing is carried out in accordance with the general methodology described by G. J. Laurent et al. in Eur. J. Clin. Invest. (1981) 11, 441-448. Pulmonary fibrosis is induced in groups of 4 New Zealand white rabbits (aged 127 days at commencement of the experiment), each weighing 2.0-2.5 kg, by intratracheal instillation of 10 mg/kg bleomycin. The lungs of test animals are examined 2, 4 and 8 weeks later.
# beagle dogs = assay: Tolerability / pilot toxicology in beagle dogs; type: in vivo; conditions: 150 and 200 mg/kg p.o., gelatine capsules over 5 weeks, olive oil week 6 to 8; substantially pure Z-isomeric form
# IL-1β = assay: RIA-Kit IL-1 quantification in human monocyte cultures; type: cell-based
# Protocol: (§1) Mononuclear cells are obtained from the blood of healthy volunteers via centrifugation and cultivated on tissue culture dishes with test compound at varying concentrations [Schnyder et al., J. Immunol., 138, 496-503 (1987)]. The non-adherent lymphocytes are removed after 4 hours by washing several times. Fresh medium, test compound and lipopolysaccharide (LPS) as stimulant are added and the monocytes incubated for further 19 hours. The pooled culture media are diluted 1:10 (v:v) with fresh medium and added to confluent rabbit chondrocytes. MP activity in the chondrocyte culture medium is assayed after a further 2 days. COMPOUNDS OF THE INVENTION, in particular compounds D2 and K1, are active in suppressing monokine release in the above test method at concentrations of the order of from about 30 to about 100 μM. Thus determined ED50 S for the compounds D2 and K1 each in substantially pure Z-isomeric form in a series of 3 or 7 separate experiments each with 3 parallel determinations are, for both compounds, of the order of 60 to 100 μM.
# The procedures of example 1.1.b. above are repeated and IL-1 concentrations in recovered, undiluted culture medium determined employing a CISTRON IL-1 radioimmuno assay kit (the CISTRON kit is obtainable from Cistron, 10, Bloomfield Avenue, P.O. Box 2004, Pine Brook, NJ 07 058 USA. It is IL-1β specific and recognises both intra- and extra-cellular material).
# [1] = system: psoriatic arthritis or seronegative spondylarthrosis or osteoarthrosis; assay: Clinical trial IV: degenerative joint disease; type: in vivo, human; conditions: ca. 200 to 1200 mg p.o./day, 8 weeks
# Protocol: COMPOUND OF THE INVENTION, e.g. compound D2 or K1 in substantially pure Z-isomeric form, is administered at dosages of from ca. 200 to 1200 mg/p.o./day, once or in divided dosages up to 4×daily for 8 weeks. The subjects are examined at a regular interval of 2 weeks for disease progression on parameters such as pain sensation at the joints, evaluation of the functional capacity according to Steinbrocker, hand grip strength or Richtie Index.
# recombinant human IL-2 = assay: Recombinant human IL-2 induced mouse thymocyte proliferation; type: cell-based; conditions: 10 ng/ml rh IL-2
# Protocol: (§2) Lymphocyte proliferation is the standard test for monokine activity. It is highly sensitive, though relatively unspecific, with IL-2, phorbol myristate acetate, concanavalin A' g-type-prostaglandin and indomethacin-nall effecting disturbance. Human monocyte culture media are prepared as described under I.I.b. above, diluted 1:10, 1:20 and 1:40 (v:v), and added to […] (obtained from C3H/HeJ mice) Dulbecco's modified Eagle's medium, containing 20 mM hydroxyethyl-piperazin-ethane-sulfonic acid, 12 mM NaHCO3, 2 mM glutamine, 2% foetal bovine serum, 10 μM 2-mercaptoethanol, […] and antibiotics. The cells are incubated for 2 days in 96-well culture plates and the proliferation rate determined using a ^3 H-thymidine pulse (1 μC/well) during the final 6 hours. The incorporated radioactivity is collected on filter paper and counted. […] Thus determined ED50 s for the compounds D2 and K1 each in substantially pure Z-isomeric form in a series of 2 separate experiments each with 3 parallel determinations are of the order of 30 μM
# (§3) In order to rule out an antagonistic effect or a direct influence of the COMPOUNDS OF THE INVENTION on the proliferation of mouse thymocytes which are used above in the LAF-test, the effect of the COMPOUNDS OF THE INVENTION on the incorporation of ^3 H-thymidine Is determined after thymocyte stimulation with recombinant human IL-1 or IL-2.
# IL-1 = IL-1 induced secretion of metalloproteinase (MP) in chondrocytes; type: cell-based; conditions: 2 days incubation
# Protocol: Furthermore the influence on IL-1 induced secretion of MP is determined using chondrocytes as a target system for IL-1. IL-1 (Genzyme Corporation,USA) is added with or without a COMPOUND OF THE INVENTION or Dexamethasone (control) to chondrocytes and the activity or metalloproteinase is determined in the supernatant media of 2 days incubation period.
# human monocytes = assay: LAF-test (thymocyte proliferation), monokine production by human monocytes; type: cell-based; conditions: Monocyte, substantially pure Z-isomeric form, 2 separate experiments, 3 parallel determinations, read-out: ED50 (inhibition of monokine production)
# Protocol: as §1
# Lymphocyte proliferation is the standard test for monokine activity. […] The cells are incubated for 2 days in 96-well culture plates and the proliferation rate determined using a ^3 H-thymidine pulse (1 μC/well) during the final 6 hours. The incorporated radioactivity is collected on filter paper and counted. […]
# periodontal disease = assay: Clinical trial III: calcium resorption - periodontal disease; type: in vivo, human; conditions: ca. 400 to 1200 mg p.o./day or injection ca. 0.5 or 1.0 to 5.0 mg per gum pouch; after ca. 2 to 3 weeks
# Protocol: COMPOUND OF THE INVENTION, e.g. compound D2 or K1 in substantially pure Z-isomeric form, is administered at dosages of from ca. 400 to 1200 mg/p.o./day administered once or in divided dosages up to 4x daily, or by injection into the gum at the site of disease at dosages of the order of about 0.5 or 1.0 to about 5.0 mg into each gum pouch. The subjects are examined at regular weekly or 2x weekly intervals for disease progression.
# recombinant human IL-1 = assay: Recombinant human IL-1 induced mouse thymocyte proliferation; type: cell-based; conditions: 75 ng/ml rh IL-1
# Protocol: as §2, §3
# [2] = CISTRON IL-1 radioimmuno assay, human monocytes
# [3] = 3H-thymidine incorporation, mouse thymocytes
compound,measurement,setting,value
"COC1=Cc2ccccc2/C(=C/C(=O)O)c2cc(Cl)sc21 [Compound K1, [2-Chloro-10-methoxy-4H-benzo[4,5]cyclohepta[1,2-b]thiophen-4-ylidene]-acetic acid]",pulmonary fibrosis,pulmonary fibrosis,substantial reduction of pulmonary fibrosis
same,pathological effects,beagle dogs,no pathological effects are observed
same,extra-cellular IL-1 level,IL-1β; [2],extra-cellular content is reduced significantly
same,intracellular IL-1 level,IL-1β; [2],remain substantially unaffected
same,IC50,"IL-1β; Homo sapiens, Monocyte, 19 h, substantially pure Z-isomeric form, 2-8 experiments, 3 parallel determinations, read-out: ED50 for extra-cellular IL-1 level suppression",~25 µM
same,condition (degenerative joint disease),[1],improvement in condition after the 8 week treatment period
same,concentration dependency of influence on rh IL-2 induced proliferation,recombinant human IL-2,no concentration dependency is detectable
same,influence on recombinant human IL-2 induced proliferation,recombinant human IL-2; [3],no significant influence
same,influence on IL-1 induced secretion of MP,IL-1,do not influence the IL-1 induced secretion of MP
same,IC50,human monocytes,~30 µM
same,condition (periodontal disease),periodontal disease,marked improvement in condition after ca. 2 to 3 weeks continuous therapy
same,concentration dependency of influence on rh IL-1 induced proliferation,recombinant human IL-1,no concentration dependency is detectable
same,influence on recombinant human IL-1 induced proliferation,recombinant human IL-1; [3],no significant influence
